# In patent US20080221214A1, “Process for the preparation of "Urchym" a urease and alpha-chymotrypsin enzyme inhibitory drug” (priority 2006, published 2008):
# Experiments:
# [1] = target: T1, Jack bean urease (Canavalia ensiformis, UniProt P07374); assay: biochemical
# T1 construct: purchased Sigma-Aldrich
# Method: Reaction mixtures comprising a 25 μL solution of enzyme (Jack bean urease, Sigma-Aldrich, specific activity 15 EU/mg) and 55 μL of buffer (0.01 M K2HPO43H2O, 1 MM EDTA 0.01 M LiCl; pH 8.2) containing 100 mM urea were incubated with 5 μL of the test compounds (0.01 μM-1 mM, dissolved in DMSO) at 30° C. for 15 min in 96-well plates. Urease activity was determined by measuring ammonia production using the indophenol method, 45 μL, of phenol reagent (1% w/v phenol and 0.005% w/v sodium nitroprusside) and 70 μL of alkali reagent (0.5% w/v NaOH and 0.1% w/v NaOCI) were added to each well (the final reaction volume was 200 μL). The increasing absorbance at 630 nm was measured after 50 min using a microplate reader (Molecular Device). All reactions were performed in triplicate. The results (change in absorbance per min) were processed using SoftMax Pro software (Molecular Device). Percent inhibitions were calculated using the formula 100−(ODtest well/ODcontrol×100).
# [2] = target: T2, α-chymotrypsin (Bos taurus, UniProt P00766); assay: α-Chymotrypsin assay and inhibition; assay type: biochemical; conditions: substrate N-succinyl-phenylalanine-p-nitroanilide, pH 7.6, 37° C., 30 min pre-incubation; read-out: IC50 value, α-chymotrypsin inhibitory activity
# T2 construct: purchased Sigma-Aldrich
# Method: For the determination of α-chymotrypsin inhibitory activity the literature protocol was followed. In brief α-chymotrypsin (9 units/mL in 50 mM Tris-HCl buffer, pH 7.6; Sigma-Aldrich) was pre-incubated with the compound (3.02×10^−5 g/100 μL) for 30 min at 37° C. and then 100 μL of substrate solution (N-succinyl-phenylalanine-p-nitroanilide; 1 mg/mL) in 50 mM Tris-HCl buffer, pH 7.6) was added to start the enzyme reaction. The absorbance of released p-nitroaniline was continuously monitored at 410 nm until a significant color change had achieved. All reactions were performed in triplicate. Percent inhibitions were calculated using the formula 100-(ODtest well/ODcontrol×100).
# T1 sequence (P07374 whole entry, looked up): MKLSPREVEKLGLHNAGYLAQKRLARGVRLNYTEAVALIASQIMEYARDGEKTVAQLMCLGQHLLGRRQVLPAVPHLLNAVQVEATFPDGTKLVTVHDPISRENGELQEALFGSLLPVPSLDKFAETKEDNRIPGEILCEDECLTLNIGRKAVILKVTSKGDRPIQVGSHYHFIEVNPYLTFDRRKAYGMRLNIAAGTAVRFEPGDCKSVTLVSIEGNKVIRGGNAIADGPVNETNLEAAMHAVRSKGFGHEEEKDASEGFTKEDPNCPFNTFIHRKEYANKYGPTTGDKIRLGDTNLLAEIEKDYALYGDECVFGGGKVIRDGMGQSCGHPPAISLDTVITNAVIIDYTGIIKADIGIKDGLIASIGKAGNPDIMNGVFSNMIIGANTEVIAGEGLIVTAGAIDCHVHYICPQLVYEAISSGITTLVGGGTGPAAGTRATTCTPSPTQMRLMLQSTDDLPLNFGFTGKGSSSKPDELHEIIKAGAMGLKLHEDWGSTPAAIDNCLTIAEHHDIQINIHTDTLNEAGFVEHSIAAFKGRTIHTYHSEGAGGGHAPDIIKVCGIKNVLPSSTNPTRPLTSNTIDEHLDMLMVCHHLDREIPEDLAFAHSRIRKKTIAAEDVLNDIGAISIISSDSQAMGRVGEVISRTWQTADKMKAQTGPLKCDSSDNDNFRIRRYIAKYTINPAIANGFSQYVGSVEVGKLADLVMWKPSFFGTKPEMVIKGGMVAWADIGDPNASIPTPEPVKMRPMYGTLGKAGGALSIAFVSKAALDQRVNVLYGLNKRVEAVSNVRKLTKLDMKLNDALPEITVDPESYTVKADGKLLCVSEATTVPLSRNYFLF
structure (smiles),measurement,setting,value
"O=C(Nc1ccc([N+](=O)[O-])cc1)Nc1ccc([N+](=O)[O-])cc1 [Urchym, N-4-nitrophenyl-N′-4′-nitrophenylurea]",IC50,[1],1250 nM
same,IC50,[2],3150 ± 140 nM
